Literature values as cited in patent publication US9102664B2, “Process for the preparation of triazole antifungal drug, its intermediates and polymorphs thereof” (MSN Laboratories Limited, priority 2011, dated 2015).

Columns and labels:
[1] = produced per U.S. Pat. No. 5,661,151 using 6N HCl in methanol
[2] = under the conditions investigated in WO 99/18097

stability of amorphous form [1]	stability of crystalline form [2]	Structure (SMILES)
not stable	–	CC[C@@H]([C@H](C)O)n1ncn(-c2ccc(N3CCN(c4ccc(OC[C@@H]5CO[C@@](Cn6cncn6)(c6ccc(F)cc6F)C5)cc4)CC3)cc2)c1=O [Amorphous form of posaconazole, posaconazole]
–	unstable	CC[C@@H]([C@H](C)O)n1ncn(-c2ccc(N3CCN(c4ccc(OC[C@@H]5CO[C@@](Cn6cncn6)(c6ccc(F)cc6F)C5)cc4)CC3)cc2)c1=O [form II, posaconazole]
